In assay [1] the target is human ACC1 (Homo sapiens, UniProt Q13085). Nature of the assay: Acetyl CoA carboxylase (ACC) activity inhibition test, human ACC1. It counts as biochemical. As to conditions: 1 μmol/liter compound; read-out: Inhibition (%) by 1 μmol/liter Chemical, human ACC1. The protocol:
(§1) A. Pharmacological Test Example (Acetyl CoA Carboxylase (ACC) Activity Inhibition Test)
(§2) A test compound is dissolved in dimethyl sulfoxide (DMSO) to a concentration of 10 mM and then diluted with DMSO to give a 100-fold concentrated solution of the compound compared with target assay concentration. The ACC enzyme activity inhibition test is carried out according to a modification of Thampy & Wakil's method (J. Biol. Chem., Vol. 260, pp. 6318-6323 (1985)). Concretely, 0.8 μl of the diluted test compound is added to each well of 96-well assay plate (Perkin Elmer Opti Plate), then 40 μl of a substrate solution (50 mM Hepes sodium (pH 7.5), 2 mM DTT, 10 mM ATP, 500 μM acetyl CoA, 0.17 mM NaH[^14C]O3 (58 mCi/mmol by Amersham), 8 mM NaHCO3) is added to each well, and 40 μL of an enzyme solution (1 to 2 nM human ACC1 or human ACC2, 50 mM Hepes sodium (pH 7.5), 2 mM DTT, 40 mM MgCl2, 40 mM tripotassium citrate 1 mg/ml fetal bovine serum albumin) is added thereto. Then, the upper side of the plate is sealed up, and the plate is incubated with gently stirring at 37° C. for 40 minutes. Next, 20 μl of 1 N HCl is added to each well to stop the enzyme reaction, and the assay plate is stirred overnight to remove the unreacted NaH[^14C]O3. Next, 100 μl of a scintillator (Perkin Elmer's Microscinti 40) is added to each well and the plate is stirred, then the radioactivity of the fixed [^14C] is counted using a microplate scintillation counter (Perkin Elmer's Topcount), the radioactivity of which represents the enzyme activity in each well. The human ACC1 and human ACC2 enzyme-inhibition activities of the test compounds are calculated, based on the radioactivity of the well added by DMSO without test compound as a control.

Assay [2] concerns the target human ACC2 (Homo sapiens, UniProt O00763). Nature of the assay: Acetyl CoA carboxylase (ACC) activity inhibition test, human ACC2. It counts as biochemical. To be noted: 1 μmol/liter compound; read-out: Inhibition (%) by 1 μmol/liter Chemical, human ACC2. The protocol: as §1, §2

Each structure is given as a SMILES string.

Sequence of human ACC2 (O00763 whole entry): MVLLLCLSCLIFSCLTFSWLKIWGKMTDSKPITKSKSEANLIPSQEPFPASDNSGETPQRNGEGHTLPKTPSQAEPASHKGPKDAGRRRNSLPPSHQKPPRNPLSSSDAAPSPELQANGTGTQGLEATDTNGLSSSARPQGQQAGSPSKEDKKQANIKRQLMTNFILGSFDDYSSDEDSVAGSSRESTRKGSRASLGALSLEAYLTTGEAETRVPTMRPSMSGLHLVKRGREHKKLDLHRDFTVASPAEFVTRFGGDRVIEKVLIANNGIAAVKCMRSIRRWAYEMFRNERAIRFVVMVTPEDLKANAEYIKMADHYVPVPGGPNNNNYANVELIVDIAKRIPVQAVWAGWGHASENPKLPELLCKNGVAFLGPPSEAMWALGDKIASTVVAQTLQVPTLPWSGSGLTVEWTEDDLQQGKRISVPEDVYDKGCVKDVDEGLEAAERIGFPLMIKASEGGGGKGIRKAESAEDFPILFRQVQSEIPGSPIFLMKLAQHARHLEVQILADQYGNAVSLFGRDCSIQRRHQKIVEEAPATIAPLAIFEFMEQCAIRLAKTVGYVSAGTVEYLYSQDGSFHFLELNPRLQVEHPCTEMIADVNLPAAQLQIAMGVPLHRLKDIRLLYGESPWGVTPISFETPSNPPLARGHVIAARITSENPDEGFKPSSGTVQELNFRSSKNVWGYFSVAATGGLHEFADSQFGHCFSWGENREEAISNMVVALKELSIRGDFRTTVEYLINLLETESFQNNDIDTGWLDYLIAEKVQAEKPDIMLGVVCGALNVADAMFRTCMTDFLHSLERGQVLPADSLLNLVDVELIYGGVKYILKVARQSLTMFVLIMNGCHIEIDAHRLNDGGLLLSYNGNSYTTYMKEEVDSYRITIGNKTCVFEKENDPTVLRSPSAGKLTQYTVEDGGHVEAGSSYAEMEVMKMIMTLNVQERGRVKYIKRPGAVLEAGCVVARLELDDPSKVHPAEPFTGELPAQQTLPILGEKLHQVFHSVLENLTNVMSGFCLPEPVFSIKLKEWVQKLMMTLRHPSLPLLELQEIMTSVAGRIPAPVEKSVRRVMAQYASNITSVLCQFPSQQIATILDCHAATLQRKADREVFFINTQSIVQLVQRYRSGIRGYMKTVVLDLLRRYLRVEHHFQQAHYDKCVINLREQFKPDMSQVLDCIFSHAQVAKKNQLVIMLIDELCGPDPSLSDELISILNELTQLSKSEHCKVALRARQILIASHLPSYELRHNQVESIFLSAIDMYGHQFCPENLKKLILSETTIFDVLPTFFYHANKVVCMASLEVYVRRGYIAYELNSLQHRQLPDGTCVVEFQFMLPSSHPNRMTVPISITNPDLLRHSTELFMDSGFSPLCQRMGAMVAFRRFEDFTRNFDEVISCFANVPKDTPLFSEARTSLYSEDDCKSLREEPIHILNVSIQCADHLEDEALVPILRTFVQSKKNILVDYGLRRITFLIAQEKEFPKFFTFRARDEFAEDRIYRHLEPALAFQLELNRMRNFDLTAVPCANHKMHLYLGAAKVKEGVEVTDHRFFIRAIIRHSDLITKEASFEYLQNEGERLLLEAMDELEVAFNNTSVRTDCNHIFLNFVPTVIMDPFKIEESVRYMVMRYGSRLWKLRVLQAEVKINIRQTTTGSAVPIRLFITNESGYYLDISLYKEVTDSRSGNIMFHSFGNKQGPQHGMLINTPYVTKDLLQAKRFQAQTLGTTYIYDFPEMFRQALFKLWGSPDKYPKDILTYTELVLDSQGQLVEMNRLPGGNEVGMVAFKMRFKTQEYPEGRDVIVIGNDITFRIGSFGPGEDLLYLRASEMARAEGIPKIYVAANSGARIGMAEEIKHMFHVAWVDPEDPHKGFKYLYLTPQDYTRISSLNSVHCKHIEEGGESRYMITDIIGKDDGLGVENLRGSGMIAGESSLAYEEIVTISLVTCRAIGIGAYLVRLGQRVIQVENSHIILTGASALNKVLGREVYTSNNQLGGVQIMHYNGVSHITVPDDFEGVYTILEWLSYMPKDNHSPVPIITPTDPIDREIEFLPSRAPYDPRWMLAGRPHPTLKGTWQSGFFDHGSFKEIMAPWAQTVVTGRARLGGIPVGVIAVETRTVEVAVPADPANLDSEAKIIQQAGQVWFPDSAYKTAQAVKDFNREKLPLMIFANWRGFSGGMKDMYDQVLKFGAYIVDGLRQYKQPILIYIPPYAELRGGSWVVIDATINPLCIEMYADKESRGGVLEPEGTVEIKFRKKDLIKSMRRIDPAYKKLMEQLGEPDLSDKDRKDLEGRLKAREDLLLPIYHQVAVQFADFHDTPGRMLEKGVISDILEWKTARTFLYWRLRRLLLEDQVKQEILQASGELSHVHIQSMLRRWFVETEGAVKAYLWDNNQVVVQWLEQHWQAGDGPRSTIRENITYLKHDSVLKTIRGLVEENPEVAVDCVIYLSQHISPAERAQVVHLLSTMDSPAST

`CCOc1cc(C(=O)N2CCC3(CC2)CC(=O)c2cc(-c4ccc(C(N)=O)cc4)ccc2O3)cc(OCC)c1-c1ccc(C(=O)O)cc1` [Example 3, 4′-({6-(4-Carbamoylphenyl)-4-oxospiro[chroman-2,4′-piperidin]-1′-yl}carbonyl)-2′,6′-diethoxybiphenyl-4-carboxylic acid]: the inhibition at 1 µM was determined as 100% in assay [1] and 99% in assay [2].
For the molecule `CCOc1cc(C(=O)N2CCC3(CC2)CC(=O)c2cc(-c4ccc(C(N)=O)cn4)ccc2O3)cc(OCC)c1-c1ccc(C(=O)O)cc1` [Example 5], the inhibition at 1 µM in assay [1] stood at 98%; in assay [2] it was 99%.
On the same counts, the results for `Cc1nn(-c2ccc(C(=O)O)cc2)c2ccc(C(=O)N3CCC4(CC3)CC(=O)c3cc(-c5cnn(C)c5)ccc3O4)cc12` [Example 13, 4-(3-Methyl-5-{[6-(1-methyl-1H-pyrazol-4-yl)-4-oxospiro[chroman-2,4′-piperidin]-1′-yl]carbonyl}-1H-indazol-1-yl)benzoic acid] are 99% and 99%.
For `CCOc1cc(C(=O)N2CCC3(CC2)CC(=O)c2cc(-c4cnn(C)c4)ccc2O3)cc(OCC)c1-c1ccc(C(=O)O)cc1` [Example 18, Sodium 2′,6′-diethoxy-4′-{[6-(1-methyl-1H-pyrazol-4-yl)-4-oxospiro[chroman-2,4′piperidin]-1′-yl]carbonyl}biphenyl-4-carboxylate], the inhibition at 1 µM in assay [1] is 99%; in assay [2], 100%.
For the molecule `CCOc1cc(C(=O)N2CCC3(CC2)CC(=O)c2cc(-c4cnn(C)c4)ccc2O3)cc(OCC)c1-c1cccc(C(=O)O)c1` [Example 20, Sodium 2′,6′-diethoxy-4′-{[6-(1-methyl-1H-pyrazol-4-yl)-4-oxospiro[chroman-2,4′-piperidin]-1′-yl]carbonyl}biphenyl-3-carboxylate], the inhibition at 1 µM is 100% in assay [1] and 99% in assay [2].
On the same counts, the results for `CCOc1cc(C(=O)N2CCC3(CC2)CC(=O)c2cc(-c4cnn(C)c4)ccc2O3)cc(OCC)c1-c1cncc(C(=O)O)c1` [Example 21, 5-(2,6-Diethoxy-4-{[6-(1-methyl-1H-pyrazol-4-yl)-4-oxospiro[chroman-2,4′-piperidin]-1′-yl]carbonyl}phenyl)nicotinic acid] are 100% and 100%.

The values are drawn from patent US8524730B2, “Spirochromanone carboxylic acids” (MSD K.K., priority 2008, dated 2013).
